The structures appear in SMILES notation.

Experimental findings from US9955676B2, “Transgenic model for delay-type hypersensitivity (DTH) and use thereof” (Macau University of Science and Technology, priority 2014, dated 2018) are described below.

The test system of one series is IKK-β+/+ mice. The experiment in a line: DNFB-induced delay-type hypersensitivity test with immunohistochemical staining, wild-type mice. The note with it: DNFB-induced DTH, FIG. 7. Format: in vivo, mouse. An excerpt:
(§1) Delay-Type Hypersensitivity Test and Immunohistochemical Staining.
(§2) The in vivo anti-inflammatory effect of DMY on CD4^+ and CD8^+ lymphocytes is examined by administering this inhibitor to the mouse with delay-type hypersensitivity (DTH) based on the previously described method. The ear samples of DTH mice are fixed in 4% neutral-buffered formalin. Each sample is cut longitudinally into half and embedded in paraffin (Panreac), and then cut into 5 μm sections. Immunohistochemical staining is performed on slides.

The test system of a further series is CIA rats. The series is described as follows: Collagen-II induced arthritis (CIA) rat model. Format: in vivo. On the procedure:
Experimental arthritis induced by collagen-II in rats. CIA is induced in female Wistar rats. Dexamethasone (DEX, 0.1 mg/kg), methotrexate (MTX, 3.75 mg/kg, twice per week) and indomethacin (Indo, 1 mg/kg) are used as reference drugs.

Series [1] deals with IKK-β (wt) / NF-κB signaling. The experiment in a line: Western blotting of TNF-α-stimulated IKK-β−/− MEFs transfected with IKK-β wild-type. The series is classed as cell-based, mouse. To be noted: DMY pretreatment 60 min, FIG. 6c. On the procedure: Western Blotting Analysis.
IKK-β^−/− deficient mouse embryonic fibroblasts (MEFs) are provided as a gift by Prof. Michael Karin (University of California, San Diego). IKK-β^−/− deficient MEFs transfected with IKK-β wild-type or mutant C46A constructs are pretreated with DMY at 37° C. for 60 min, and then the cells are stimulated with TNF-α and harvested for western blotting analysis. The expressions of IκBα, p-p65^ser536, FLAG-IKK-β and actin are detected with their specific antibodies.
Background: In western blotting, separated proteins are transferred to a membrane and probed.

A further series concerns IKK-β C46A mutant mice. The series is described as follows: DNFB-induced delay-type hypersensitivity test with immunohistochemical staining, mutant mice. Format: in vivo, mouse. The note with it: homozygous IKK-β C46A mutant mice.
From the text: as §1, §2

The target of another series is T1, IKK-β C46A mutant (Homo sapiens, UniProt O14920, C46A).
T1 construct: FLAG; made in house
T1 sequence (O14920 1-756 C46A): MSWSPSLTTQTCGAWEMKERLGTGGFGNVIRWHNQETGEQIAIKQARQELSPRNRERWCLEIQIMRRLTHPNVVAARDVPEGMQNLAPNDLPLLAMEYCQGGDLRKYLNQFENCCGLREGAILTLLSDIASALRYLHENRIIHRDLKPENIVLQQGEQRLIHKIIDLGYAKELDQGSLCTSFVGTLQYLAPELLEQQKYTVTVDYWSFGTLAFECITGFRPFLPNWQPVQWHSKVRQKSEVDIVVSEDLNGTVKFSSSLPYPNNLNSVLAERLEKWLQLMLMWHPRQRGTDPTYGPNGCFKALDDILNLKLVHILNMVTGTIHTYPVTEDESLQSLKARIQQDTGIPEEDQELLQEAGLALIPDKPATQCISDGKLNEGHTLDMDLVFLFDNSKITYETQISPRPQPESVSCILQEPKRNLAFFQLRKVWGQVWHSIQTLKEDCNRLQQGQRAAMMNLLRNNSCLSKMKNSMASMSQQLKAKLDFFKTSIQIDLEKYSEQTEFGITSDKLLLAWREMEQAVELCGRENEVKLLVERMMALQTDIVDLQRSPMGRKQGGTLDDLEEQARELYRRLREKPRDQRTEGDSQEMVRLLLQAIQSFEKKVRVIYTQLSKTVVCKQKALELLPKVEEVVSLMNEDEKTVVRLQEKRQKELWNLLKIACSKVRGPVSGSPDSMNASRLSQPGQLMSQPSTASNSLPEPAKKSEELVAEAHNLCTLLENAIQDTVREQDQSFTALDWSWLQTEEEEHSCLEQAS
The experiment in a line: IKK-β kinase assay (K-LISA IKKβ-Inhibitor Screening Kit) on cysteine mutants. The series is classed as biochemical. To be noted: FIG. 6a. On the procedure: IKK-β kinase assay is performed using a K-LISA™ IKKβ-Inhibitor Screening Kit (Calbiochem).
To determine the specificity to which cysteine residue(s) on IKK-β for the inhibitory action of a well-known inhibitor, DMY, all other 15 single point mutation IKK-β constructs with cysteine (C) residues are replaced with alanine (A) by site-directed mutagenesis (FIG. 6a), except Cys-46.

Take `O=C1c2c(O)cc(O)cc2O[C@H](c2cc(O)c(O)c(O)c2)[C@H]1O` [DMY, dihydromyricetin]: the “number of CD8+ lymphocytes in ear sections” value in the series on IKK-β+/+ mice is reported as “gradually decreases”. In addition, in the series with CIA rats (CIA rats, FIG. 8c), the “NF-κB signaling in the knee synovial tissues” value was “significantly suppress”. For the same compound, the organ indexes entry in the series with CIA rats (CIA rats, FIG. 8d) was “no adverse impairment”. The body weight entry with CIA rats (CIA rats, compared to vehicle- and reference reagents-treated animals, FIG. 8e) is reported as “prevent loss of body weight”. In addition, in the series with CIA rats (compared to vehicle-treated CIA rats, FIG. 8a), the hind paw volumes entry was “significantly decrease”. The arthritic scores entry in the series on CIA rats (compared to vehicle-treated CIA rats, FIG. 8b) was “significantly decrease”. Moreover, the “TNF-α-induced phosphorylation of NF-κB p65 and degradation of IκBα” value in series [1] is “suppression of TNF-α-induced phosphorylation of NF-κB p65 and degradation of IκBα”. In the series on IKK-β C46A mutant mice, the “anti-inflammatory potency in DTH responses” value is “diminished anti-inflammatory potency”. Also, the “kinase inhibitory effect (phosphorylation of IκBα)” value on IKK-β C46A mutant was “abrogates the kinase inhibitory effect”.
